Test results as given in patent US20220304978A1, “INHIBITING MESANGIAL CELL ACTIVATION” (Chinook Therapeutics, Inc., priority 2019, published 2022).

Test system: kidney tissue of g-ddY mice
Experiment: Ingenuity Pathway Analysis (IPA) canonical pathways, g-ddY kidney RNA-seq
Format: in vivo, mouse
Settings: 30 mg/kg/day

CCCCN(CCCC)C(=O)CN1C[C@H](c2ccc3c(c2)OCO3)[C@@H](C(=O)O)[C@@H]1c1ccc(OC)cc1 [atrasentan, (2R,3R,4S)-4-(1,3-benzodioxol-5-yl)-1-[2-(dibutylamino)-2-oxoethyl]-2-(4-methoxyphenyl)pyrrolidine-3-carboxylic acid]
reduced: IL-6 signaling | NF-κB signaling | PDGF signaling
